Laboratory results: publication PMC10094418, “Butein Inhibits Cell Growth by Blocking the IL-6/IL-6Rα Interaction in Human Ovarian Cancer and by Regulation of the IL-6/STAT3/FoxO3a Pathway” (International Journal of Molecular Sciences, 2023)

Assays:
Assay type in all cases: cell-based, human
[1] = test system: SKOV3 cells; test: Flow cytometric cell cycle analysis (PI), SKOV3; conditions: butein treatment; 58.3% under control conditions
Description: (§1) A2780 and SKOV3 cell lines were treated with control (siltuximab 10 μM) and butein (5, 10, and 25 μM). After 6 h, the cells were fixed with 70% ethanol for cell cycle analysis and stained with propidium iodide (PI). Cell death was analyzed using the FITC Annexin V Apoptosis Detection kit with 7-AAD (Cat.no. 640922, BioLegend, San Diego, CA, USA). Cells were sorted using a FACS Canto II (BD Biosciences, Franklin Lakes, NJ, USA) and cell cycle and apoptosis were analyzed using BD FACS Diva software version 6. 2. Analysis (BD Biosciences, Franklin Lakes, NJ, USA) was performed in triplicate.

[2] = test system: A2780 cells; test: Annexin V apoptosis assay, A2780; conditions: dose-dependent, p < 0.005
Description: as §1

[3] = test system: A2780 cells; test: Wound-healing assay, A2780; conditions: 24 h and 48 h, concentration-dependent, vs control, 0.1% DMSO and siltuximab
Description: (§2) A2780 and SKOV3 cells were cultured to 90% confluence in 6-well plates. After changing to a serum-free medium, the cell monolayer was scraped to artificially form homogeneous wound with uniform thickness. The drug treatment for each well was carried out in the following manner: siltuximab at 50 μM; butein at 10, 25, and 50 μM. The cells were imaged at 0, 24, and 48 h.

[4] = test system: SKOV3 cells; test: Wound-healing assay, SKOV3; conditions: 24 h and 48 h, concentration-dependent, vs control, 0.1% DMSO and siltuximab
Description: as §2

[5] = test system: A2780 cells; test: Matrigel invasion assay, A2780; conditions: 48 h
Description: Matrigel invasion assays were performed using a BioCoat Matrigel Invasion Chamber (BD Bioscience, Bedford, MA, USA). A2780 and SKOV3 cells (50,000 cells) were placed inside the chamber in serum-free medium containing 500 μL of drugs, and 700 μL of medium containing serum were placed outside the chamber. After incubation for 48 h, the infiltrating cells were stained using the Differential Quick Stain Kit (Cat.no. 26096-50, Electron Microscopy Sciences, Hatfield, PA, USA). Cells were imaged with a Slide Scanner (Aperio CS2, Leica Microsystems, Wetzlar, Germany) and the number of invading cells was quantified using Image J.

[6] = test system: STAT3 phosphorylation in A2780 cells; test: Western blotting of STAT3 phosphorylation, A2780; conditions: relative to IL-6 treated cells
Description: (§3) After each drug treatment of the cells, the cells were dissolved in 100 μL of radioimmunoprecipitation assay (RIPA) buffer (Thermo Fisher Scientific Inc., Waltham, MA, USA) and centrifuged to separate the supernatant containing protein. Isolated protein concentrations were measured using the Pierce BCA Protein Assay Kit (Thermo Fisher Scientific Inc., Waltham, MA, USA). Aliquots of proteins quantified at […] were boiled at 100 °C in 5× sample buffer, separated on a 12% SDS-polyacrylamide gel and electrophoresed onto polyvinylidene difluoride (PDVF) membranes (Millipore, Billerica, MA, USA). The PDVF membranes were blocked for 1 h at 25 °C with 5% BSA in 1× tris buffered saline containing 0.05% Tween20 (TBST) (Sigma-Aldrich, St. Louis, MO, USA). The membrane was incubated in the primary antibody at 4 °C overnight. PDVF membranes were washed with 1× TBST and incubated with AffiniPure goat anti-rabbit IgG secondary antibody (Jackson Immunoresearch, West Grove, PA, USA) for 1 h at room temperature. After washing again with TBST buffer, enhanced signals were detected using the SuperSignal™ West Femto Maximum Sensitivity Substrate kit (cat.no. 34094, Thermo Scientific, Rockford, IL, USA). The blot was imaged using the ChemiDoc imaging system (Bio-Rad, Herles, CA, USA), and protein expression was quantified with the ImageJ software (v1.8.0).

[7] = test system: STAT3 phosphorylation in SKOV3 cells; test: Western blotting of STAT3 phosphorylation, SKOV3; conditions: relative to IL-6 treated cells
Description: as §3

For `O=C(/C=C/c1ccc(O)c(O)c1)c1ccc(O)cc1O` [butein], which “SKOV3 cells in G1-phase” value [1] is on record?
The value was 65.8%.

What about the “Total apoptosis, A2780” value [2] of the same compound?
Its value is “significantly increase”.

And the “Cell migration, A2780” value [3]?
The value was “reduced”.

What about the “Cell migration, SKOV3” value [4] of the same compound?
Its value is “reduced”.

What about the “Cell infiltration (invasion), A2780” value [5] of the same compound?
Its value is “similarly affected”.

What about the “Phosphorylation of STAT3, A2780” value [6] of the same compound?
The value was “inhibited in a concentration-dependent manner”.

And the “Phosphorylation of STAT3, SKOV3” value [7]?
Its value is “inhibited in a concentration-dependent manner”.
